The values that follow come from patent US8901086B2, “Compositions including triciribine and methods of use thereof” (University of South Florida, priority 2004, dated 2014).

One test relates to p70S6K. Format: cell-based, human. To be noted: 2 hours; trastuzumab 2 μg/ml, RAD001 0.4 nM.
Another test deals with MCF7 cells. Briefly: Western blot of Akt pathway after mTOR inhibitor. Format: cell-based. The following applies: 24 hour time course. As to the method:
The upper panels (A) show western blots of OV3 cell lysates following the treatment with 1 nM mTOR inhibitor rapamycin for the time indicated. Membranes were probed with antibodies specific to phosphorylated isoforms and to the total protein for comparison of Akt, p70S6K and FKHRL 1. The lower panels (B) illustrate western blots of MCF7 cell lysates following treatment with the mTOR inhibitor RAD001 for the time indicated. Membranes were probed with antibodies specific to phosphorylated isoforms and to the total protein for comparison of Akt and p70S6K.
OV3 and MCF7 cells were treated with the mTOR inhibitors rapamycin and RAD001, respectively, over a 24 hour time course. Lysyates were resolved by SDS-PAGE and transferred to a membrane for western blotting. Membranes were probed with antibodies to phospho-Akt, total Akt, phospho-p70S6K, and total p70S6K. Membranes with lysates derived from OV3 cells were additionally probed with antibodies to phospho-FKHRL 1 and total FKHRL 1.

The test system of the next test is Akt. Format: cell-based, human. The following applies: 2 hours; trastuzumab 2 μg/ml, triciribine 2.5 μM, RAD001 0.4 nM.
The test system of test [1] is H929 cells and U266 cells. Briefly: Survival of multiple myeloma derived cells. Format: cell-based.
Another test concerns the target PKCα (Homo sapiens, UniProt P17252). Put plainly: PKCα activity, kinase assay and immunoblot. The format is cell-based.

SMILES strings stand for the structures.

Description for PKCα: The immunoblots were detected with indicated antibodies. […] The kinase activity was quantified.
Protocol for p70S6K: Total cell lysates were collected, separated by SDS-PAGE and immunoblotted as indicated. […] The experiments were repeated at least twice to insure that results were reproducible.
SDS-PAGE and Immunoblot Analysis. Cells transfected with PTEN AS/NS oligonucleotides were treated as indicated.
Phosphorylation of Akt on Thr308 and Ser473 was analyzed as an indicator of Akt activity and mTOR activity was assessed by the phosphorylation of p70S6K (70-kDa ribosomal protein S6 kinase), an mTOR target.

With `CO[C@H]1C[C@@H]2CC[C@@H](C)[C@@](O)(O2)C(=O)C(=O)N2CCCC[C@H]2C(=O)O[C@H]([C@H](C)C[C@@H]2CC[C@@H](OCCO)[C@H](OC)C2)CC(=O)[C@H](C)/C=C(\C)[C@@H](O)[C@@H](OC)C(=O)[C@H](C)C[C@H](C)/C=C/C=C/C=C/1C` [RAD001, everolimus], the “phosphorylation of p70S6K” value in the test with p70S6K is listed as “dramatically blocked”. Moreover, the “activation of Akt pathway” value in the test with MCF7 cells is given as “rapid activation of Akt pathway”. Further, the “phosphorylation of Akt on Thr308 and Ser473” value in the test on Akt was “feedback activation of Akt”.

On to `CC(C)C[C@H](NC(=O)[C@H](Cc1ccccc1)NC(=O)c1cnccn1)B(O)O` [bortezomib], for which the “effect of API-2 on survival of myeloma cells” value in test [1] is listed as “synergistically enhances”.

With `Cn1cc(C2=C(c3cn(CCCSC(=N)N)c4ccccc34)C(=O)NC2=O)c2ccccc21` [Ro 31-8220], the “kinase activity of PKCα” value on PKCα is “inhibited”.
